Biological target: human PKR1 receptors (Homo sapiens (Human), UniProt Q8TCW9)
Assay: PKR1 antagonist intracellular calcium (FLIPR) assay, block of PK1-mediated calcium release
Format: cell-based
Settings: RBL2H3 cells expressing human PKR1; PK1 at EC80; minimum of two independent assays
Method: Prokineticin receptor 1 (PKR1) antagonists may be functionally assessed by measurement of change in intracellular calcium levels induced by Gq mediated increase in inositol triphosphate (IP3) levels. The ability of a compound to block the intracellular release of calcium mediated by PK1 in RBL2H3 cells expressing human PKR1 receptors is determined as a measure of the compound's antagonist activity in vitro.
Approximately 10,000 cells per assay well are seeded in normal culture medium in a 384 well plate (Corning). Twenty-four hours after seeding, the cells are loaded with a calcium sensitive fluorescent dye by replacing the culture medium with assay buffer (1× Hanks buffered saline, 25 mM HEPES, 0.1% w/v fatty acid free BSA (bovine serum albumin), pH 7.4) containing 1 mM probenecid and 1× Calcium 5 Reagent (Molecular Devices). Cells are incubated at 37° C. for 1 hour to allow for dye uptake.
To test for antagonist activity, test compounds at a final concentration range between 0.32 nM-10 μM (diluted in assay buffer) are added to duplicate assay wells and allowed to incubate for 10 minutes prior to stimulation with PK1. After incubation with test compounds the assay plate is placed in a FLIPR Tetra (Molecular Devices) and PK1 (diluted in assay buffer) is added at the determined EC80 concentration (final). Ligand-dependent changes in intracellular calcium levels are determined by measuring changes in fluorescence of the dye at […] following excitation at 485 nm. […] A minimum of two IC50 values determined from independent assays are generated for each compound.

Sequence of human PKR1 receptors (Q8TCW9 whole entry): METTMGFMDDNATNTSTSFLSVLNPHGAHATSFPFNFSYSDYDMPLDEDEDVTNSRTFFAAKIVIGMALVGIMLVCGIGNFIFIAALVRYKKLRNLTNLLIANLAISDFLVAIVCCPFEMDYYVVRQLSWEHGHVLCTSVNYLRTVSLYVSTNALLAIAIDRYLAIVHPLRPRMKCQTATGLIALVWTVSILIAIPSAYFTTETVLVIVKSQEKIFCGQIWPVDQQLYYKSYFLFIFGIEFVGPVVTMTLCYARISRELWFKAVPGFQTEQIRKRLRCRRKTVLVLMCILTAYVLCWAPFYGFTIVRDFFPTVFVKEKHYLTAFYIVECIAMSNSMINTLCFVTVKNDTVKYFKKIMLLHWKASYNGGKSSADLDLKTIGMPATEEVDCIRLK

Structure (SMILES)	IC50
CNc1cc(C(=O)N2CCCC(OC)(c3ncc(Cl)cc3C)C2)ccn1 (centres unmarked) [Example 34, 4-[3-(5-Chloro-3-methylpyridin-2-yl)-3-methoxypiperidine-1-carbonyl]-N-methylpyridin-2-amine]	0.47 µM
CNc1cc(C(=O)N2CCCC(F)(c3ncc(Cl)cc3C)C2)ccn1 (centres unmarked) [Example 35, 4-[3-(5-Chloro-3-methylpyridin-2-yl)-3-fluoropiperidine-1-carbonyl]-N-methylpyridin-2-amine]	0.29 µM
CNc1cc(C(=O)N2CCCC(OC)(c3ncc(Cl)cc3C)C2)cnn1 (centres unmarked) [Example 36, 5-[3-(5-Chloro-3-methylpyridin-2-yl)-3-methoxypiperidine-1-carbonyl]-N-methylpyridazin-3-amine]	1.49 µM
COC1(c2ncc(Cl)cc2C)CCCN(C(=O)c2cnnc(N(C)C)c2)C1 (centres unmarked) [Example 37, 5-[3-(5-Chloro-3-methylpyridin-2-yl)-3-methoxypiperidine-1-carbonyl]-N,N-dimethylpyridazin-3-amine]	0.92 µM
CNc1cc(C(=O)N2CCCC(F)(c3ncc(Cl)cc3C)C2)cnn1 (centres unmarked) [Example 38, 5-[3-(5-Chloro-3-methylpyridin-2-yl)-3-fluoropiperidine-1-carbonyl]-N-methylpyridazin-3-amine]	1.25 µM
Cc1cc(Cl)cnc1C1(F)CCCN(C(=O)c2cnnc(N(C)C)c2)C1 (centres unmarked) [Example 39, 5-[3-(5-Chloro-3-methylpyridin-2-yl)-3-fluoropiperidine-1-carbonyl]-N,N-dimethylpyridazin-3-amine]	0.4 µM
CCn1cc(C(=O)N2CCCC(F)(c3ncc(Cl)cc3C)C2)cn1 (centres unmarked) [Example 41, 5-Chloro-2-[1-(1-ethyl-1H-pyrazole-4-carbonyl)-3-fluoropiperidin-3-yl]-3-methylpyridine]	2.39 µM
COC1(c2ncc(Cl)cc2C)CCCN(C(=O)c2cn(C)nc2N)C1 (centres unmarked) [Example 42, 4-[3-(5-Chloro-3-methylpyridin-2-yl)-3-methoxypiperidine-1-carbonyl]-1-methyl-1H-pyrazol-3-amine]	> 9 µM
Cc1cc(Cl)cnc1C1(F)CCCN(C(=O)c2cn(C)nc2N)C1 (centres unmarked) [Example 43, 4-[3-(5-Chloro-3-methylpyridin-2-yl)-3-fluoropiperidine-1-carbonyl]-1-methyl-1H-pyrazol-3-amine]	> 5 µM

The next lines start with the values.

IC50	Structure (SMILES)
2.08 µM	CNc1cc(C(=O)N2CCCC(OC)(c3ncc(Cl)cc3C(F)(F)F)C2)cnn1 (centres unmarked) [Example 30, 5-({3-[5-Chloro-3-(trifluoromethyl)pyridin-2-yl]-3-methoxypiperidin-1-yl}carbonyl)-N-methylpyridazin-3-amine]
1.62 µM	COC1(c2ncc(Cl)cc2C(F)(F)F)CCCN(C(=O)c2cnnc(N(C)C)c2)C1 (centres unmarked) [Example 31, 5-{3-[5-Chloro-3-(trifluoromethyl)pyridin-2-yl]-3-methoxypiperidine-1-carbonyl}-N,N-dimethylpyridazin-3-amine]
1.88 µM	CCn1cc(C(=O)N2CCCC(OC)(c3ncc(Cl)cc3C(F)(F)F)C2)cn1 (centres unmarked) [Example 32, 5-Chloro-2-[1-(1-ethyl-1H-pyrazole-4-carbonyl)-3-methoxypiperidin-3-yl]-3-(trifluoromethyl)pyridine]
0.51 µM	COC1(c2ncc(Cl)cc2C(F)(F)F)CCCN(C(=O)c2ccnc(N(C)C)c2)C1 (centres unmarked) [Example 33, 4-{3-[5-Chloro-3-(trifluoromethyl)pyridin-2-yl]-3-methoxypiperidine-1-carbonyl}-N,N-dimethylpyridin-2-amine]
3.41 µM	CCn1cc(C(=O)N2CCCC(OC)(c3ncc(Cl)cc3C)C2)cn1 (centres unmarked) [Example 40, 5-Chloro-2-[1-(1-ethyl-1H-pyrazole-4-carbonyl)-3-methoxypiperidin-3-yl]-3-methylpyridine]

— patent US10562882B2, “Piperidine derivatives for use in the treatment or prevention of psychiatric and neurological conditions” (Takeda Pharmaceutical Company Limited, priority 2013, dated 2020)
